Results: ChEMBL document CHEMBL5608216, “Discovery of a novel Xanthone derivative P24 for anti-AD via targeting sTGFBR3” (Eur J Med Chem, 2024)
Active and inactive are the calls of the source. No cut-off for these calls is given here.

Experiments:
[1] = Cytotoxicity against LPS-induced mouse BV-2 cells assessed as survival rate at 10 uM measured after 24 hrs by MTT assay relative to control; format: toxicity, cell-based; settings: LPS-induced BV-2 cells, read-out: Survival
[2] = tested on: BV-2; experiment: Antiinflammatory activity in LPS-induced mouse BV-2 cells assessed as inhibition of NO production incubated for 24 hrs by Griess reagent based analysis; format: functional, cell-based; settings: BV-2, 24 h
[3] = Permeability of compound measured after 18 hrs by UV spectrophotometer based PAMPA; format: ADME
[4] = tested on: BV-2; experiment: Activation of TGF-beta pathway in APP/PS1/tau mouse brain extract-induced mouse BV-2 cells assessed as increase in phosphorylated SMAD2/3 protein level by immunoblot analysis; format: cell-based; settings: filed as activator
[5] = biological target: T1, Transforming growth factor beta receptor type 3 (Mus musculus) (UniProt O88393); experiment: Binding affinity to sTGFBR3 in APP/PS1/tau mouse brain extract-induced mouse BV-2 cells at 37 to 77 degreeC measured after 3 hrs by CETSA; format: cell-based
T1 sequence (whole entry): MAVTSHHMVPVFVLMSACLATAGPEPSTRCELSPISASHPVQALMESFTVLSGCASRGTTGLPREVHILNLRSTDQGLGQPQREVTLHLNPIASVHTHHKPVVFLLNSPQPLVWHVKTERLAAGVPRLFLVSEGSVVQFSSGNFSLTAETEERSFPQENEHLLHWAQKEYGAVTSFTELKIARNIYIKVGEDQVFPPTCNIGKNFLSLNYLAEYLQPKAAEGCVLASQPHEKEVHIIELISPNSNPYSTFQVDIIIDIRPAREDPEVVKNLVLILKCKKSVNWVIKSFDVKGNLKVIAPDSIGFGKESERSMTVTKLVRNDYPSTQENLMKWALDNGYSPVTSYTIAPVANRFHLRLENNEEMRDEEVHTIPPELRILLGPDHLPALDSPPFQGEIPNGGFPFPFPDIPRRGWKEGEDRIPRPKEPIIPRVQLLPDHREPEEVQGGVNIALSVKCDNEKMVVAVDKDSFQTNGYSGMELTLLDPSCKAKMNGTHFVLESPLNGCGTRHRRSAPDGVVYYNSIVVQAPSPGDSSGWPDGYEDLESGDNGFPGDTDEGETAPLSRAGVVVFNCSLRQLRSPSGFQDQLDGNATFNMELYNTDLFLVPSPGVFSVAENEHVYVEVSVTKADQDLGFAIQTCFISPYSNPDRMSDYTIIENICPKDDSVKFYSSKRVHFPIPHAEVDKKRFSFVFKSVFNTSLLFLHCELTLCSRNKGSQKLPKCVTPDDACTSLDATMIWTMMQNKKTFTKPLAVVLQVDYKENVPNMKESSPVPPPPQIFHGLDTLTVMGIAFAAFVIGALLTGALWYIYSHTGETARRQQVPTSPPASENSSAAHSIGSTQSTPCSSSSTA

[6] = tested on: BV-2; experiment: Inhibition of NF-kappaB activation in APP/PS1/tau triple transgenic mouse brain extract-induced mouse BV-2 cells assessed as reduction in IKK complex formation by immunoblot analysis; format: cell-based; settings: dose 1.25-10 µM
[7] = Toxicity in C57BL/6 mouse assessed as mortality at 2000 mg/kg, po measured after 3 to 24 hrs; format: organism-based; settings: in vivo, time 3-24 hrs
[8] = tested on: BV-2; experiment: Activation of TGF-beta pathway in APP/PS1/tau triple transgenic mouse brain extract-induced mouse BV-2 cells assessed as increase in phosphorylated SMAD2/3 protein expression by immunoblot analysis; format: cell-based; settings: filed as activator, dose 1.25-10 µM
[9] = AUC (0 to t) in Sprague-Dawley rat at 50 mg/kg, po administered as single dose and measured upto 48 hrs; format: ADME, organism-based; settings: in vivo
[10] = tested on: BV-2; experiment: Enhancement of amyloid beta phagocytosis in APP/PS1/tau triple transgenic mouse brain extract-induced mouse BV-2 cells assessed as increase in fluorescence intensity pretreated for 1 hr followed by brain extract treatment and measured after 24 hrs by Thioflavin T staining based assay; format: functional, cell-based; settings: dose 1.25-10 µM, time 25.0 hrs
[11] = tested on: BV-2; experiment: Inhibition of NF-kappaB activation in APP/PS1/tau triple transgenic mouse brain extract-induced mouse BV-2 cells assessed as inhibition of phosphorylated p65 protein expression by immunoblot analysis; format: cell-based; settings: dose 1.25-10 µM
[12] = Elimination half life in Sprague-Dawley rat at 50 mg/kg, po administered as single dose and measured upto 48 hrs; format: ADME, organism-based; settings: in vivo, read-out: beta t1/2 (converted)
[13] = tested on: BV-2; experiment: Antiinflammatory activity in APP/PS1/tau triple transgenic mouse brain extract-induced mouse BV-2 cells assessed as reduction in CD86 expression by immunoblot analysis; format: functional, cell-based; settings: dose 1.25-10 µM
[14] = Cmax in Sprague-Dawley rat at 50 mg/kg, po administered as single dose and measured upto 48 hrs; format: ADME, organism-based; settings: in vivo
[15] = tested on: BV-2; experiment: Antiinflammatory activity in APP/PS1/tau triple transgenic mouse brain extract-induced mouse BV-2 cells assessed as reduction in TNFalpha expression by immunoblot analysis; format: functional, cell-based; settings: dose 1.25-10 µM
[16] = Tmax in Sprague-Dawley rat at 50 mg/kg, po administered as single dose and measured upto 48 hrs; format: ADME, organism-based; settings: in vivo
[17] = MRT (0 to infinity) in Sprague-Dawley rat at 50 mg/kg, po administered as single dose and measured upto 48 hrs; format: ADME, organism-based; settings: in vivo
[18] = tested on: BV-2; experiment: Antiinflammatory activity in APP/PS1/tau triple transgenic mouse brain extract-induced mouse BV-2 cells assessed as increase in CD206 expression by immunoblot analysis; format: functional, cell-based; settings: dose 1.25-10 µM
[19] = tested on: BV-2; experiment: Inhibition of NF-kappaB activation in APP/PS1/tau triple transgenic mouse brain extract-induced mouse BV-2 cells assessed as inhibition of phosphorylated IKBalpha protein expression by immunoblot analysis; format: cell-based; settings: dose 1.25-10 µM
[20] = tested on: BV-2; experiment: Antiinflammatory activity in APP/PS1/tau triple transgenic mouse brain extract-induced mouse BV-2 cells assessed as increase in IL-10 expression by immunoblot analysis; format: functional, cell-based; settings: dose 1.25-10 µM
[21] = tested on: BV-2; experiment: Antiinflammatory activity in APP/PS1/tau triple transgenic mouse brain extract-induced mouse BV-2 cells assessed as increase in IL-4 expression by immunoblot analysis; format: functional, cell-based; settings: dose 1.25-10 µM
[22] = tested on: BV-2; experiment: Antiinflammatory activity in APP/PS1/tau triple transgenic mouse brain extract-induced mouse BV-2 cells assessed as reduction in IL-1beta expression by immunoblot analysis; format: functional, cell-based; settings: dose 1.25-10 µM

SMILES | viability at 24 h, 10 µM [1] | IC50 [2] | further results
O=C(COc1ccc2c(=O)c3ccccc3oc2c1)NCc1ccccn1 | 69.1% | 2.43 µM | 
O=C(COc1ccc2c(=O)c3ccccc3oc2c1)NC1CCOCC1 | 80.6% | 3.9 µM | 
O=C(COc1ccc2c(=O)c3ccccc3oc2c1)NCCc1ccccc1 | 96.4% | 2.57 µM | 
O=C(COc1ccc2c(=O)c3ccccc3oc2c1)NCc1ccncc1 | 102% | 6.38 µM | 
O=C(COc1ccc2c(=O)c3ccccc3oc2c1)NCc1cccnc1 | 75.4% | 16 µM | 
O=C(COc1ccc2c(=O)c3ccccc3oc2c1)N(Cc1ccccc1)Cc1ccccc1 | 99.7% | 6.38 µM | 
O=C(COc1ccc2c(=O)c3ccccc3oc2c1)NCc1ccccc1 | 79% | 2.41 µM | 
O=C(COc1ccc2c(=O)c3ccccc3oc2c1)NC[C@@H](O)c1ccccc1 | 100% | 12.5 µM | 
O=C(COc1ccc2c(=O)c3ccccc3oc2c1)NCc1ccc(F)cc1 | 82.8% | 2.02 µM | 
O=C(COc1ccc2c(=O)c3ccccc3oc2c1)NCc1cccc(F)c1 | 97.2% | > 30 µM | 
Cc1ccc(CCNC(=O)COc2ccc3c(=O)c4ccccc4oc3c2)cc1 | 47.9% | 3.42 µM | 
COc1ccc(CCNC(=O)COc2ccc3c(=O)c4ccccc4oc3c2)cc1 | 54.4% | 0.86 µM | 
O=C(COc1ccc2c(=O)c3ccccc3oc2c1)NCCc1ccc(Cl)cc1 | 38.5% | 1.53 µM | 
O=C(COc1ccc2c(=O)c3ccccc3oc2c1)Nc1ccccn1 | 87.4% | > 30 µM | 
CN1CCN(C(=O)COc2ccc3c(=O)c4ccccc4oc3c2)CC1 | 91.6% | 2.25 µM | 
O=C(COc1ccc2c(=O)c3ccccc3oc2c1)Nc1ccncc1 | 108% | 2.79 µM | 
O=C(COc1ccc2c(=O)c3ccccc3oc2c1)Nc1cccnc1 | 91.9% | 1.92 µM | 
CCC(NC(=O)COc1ccc2c(=O)c3ccccc3oc2c1)c1ccccn1 (stereo not given) | 98.5% | 5.43 µM | 
CN1CCN(c2ccc(NC(=O)COc3ccc4c(=O)c5ccccc5oc4c3)nc2)CC1 | 86% | 1.19 µM | 
C[C@]12CCC(=O)C=C1CC[C@@H]1[C@@H]2CC[C@]2(C)C(=O)CC[C@@H]12 [ANDROSTENEDIONE] |  |  | permeability [3]: 87.28%
O=C(COc1ccc2c(=O)c3ccccc3oc2c1)NCc1ccccc1F | 84.6% | 1.72 µM | 
O=C(COc1ccc2c(=O)c3ccccc3oc2c1)N1CCNCC1 | 101% | 2.15 µM | Activity [4]: Active; Activity [5]: inactive
O=C(COc1ccc2c(=O)c3ccccc3oc2c1)NCC1CCOCC1 | 105% | 0.52 µM | inhibition [6]: Dose-Dependent Effect; Activity [7]: Non-Toxic; Activity [8]: Dose-Dependent Effect; AUCt [9]: 4738.426 ng·h/mL; Activity [10]: Dose-Dependent Effect; inhibition [11]: Dose-Dependent Effect; half-life [12]: 10.3 h; Activity [4]: Active; Activity [13]: Dose-Dependent Effect; Cmax [14]: 304 ng/mL; Activity [15]: Dose-Dependent Effect; Tmax [16]: 12 h; permeability [3]: 79.33%; MRT inf [17]: 14.5 h; Activity [18]: Dose-Dependent Effect; Activity ([5]; filed as antagonist): Active; inhibition [19]: Dose-Dependent Effect; Activity [20]: Dose-Dependent Effect; Activity [21]: Dose-Dependent Effect; Activity [22]: Dose-Dependent Effect
O=C(COc1ccc2c(=O)c3ccccc3oc2c1)NCCc1ccc(Cl)c(Cl)c1 | 41.1% | 3.28 µM | 
O=c1c2ccccc2oc2ccccc12 [XANTHONE] | 95.4% | 21.2 µM | 
O=C(COc1ccc2c(=O)c3ccccc3oc2c1)NCc1ccc(Cl)cc1 | 40.4% | 1.23 µM | 
O=C(COc1ccc2c(=O)c3ccccc3oc2c1)N1CCOCC1 | 108% | 2.49 µM | Activity [4]: Active; Activity ([5]; filed as antagonist): Active
O=C(COc1ccc2c(=O)c3ccccc3oc2c1)NCc1ccc(Cl)c(Cl)c1 | 54.6% | 2.89 µM | 
CCn1cc(C(=O)O)c(=O)c2cc(F)c(N3CCNCC3)nc21 [ENOXACIN] |  |  | permeability [3]: 43.26%
